Source: ChEMBL document CHEMBL1201862, “PubChem BioAssay data set” (2004)
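In this assay, cells in 96-well plates receive the compound at five concentrations for 48 hours. Endpoints are linearly interpolated between the surrounding concentrations. GI50 = concentration required for 50% inhibition of growth.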 Activity calls are given as the source filed them. Rule as the data show it: active = GI50 up to about 1.1 µM and inactive = higher.

Tests used:
Assay in all cases: NCI-60 cell line screen, 48 h
TK-10 = test system: TK-10
HOP-92 = test system: HOP-92
U-251 = test system: U-251
OVCAR-5 = test system: OVCAR-5
HT-29 = test system: HT-29
SN12C = test system: SN12C
HCC 2998 = test system: HCC 2998
RPMI-8226 = test system: RPMI-8226
NCI-H460 = test system: NCI-H460
SNB-75 = test system: SNB-75
LXFL 529 = test system: LXFL 529
IGROV-1 = test system: IGROV-1
A549 = test system: A549
UACC-62 = test system: UACC-62
KM12 = test system: KM12
SF-539 = test system: SF-539
ACHN = test system: ACHN
NCI-H522 = test system: NCI-H522
DMS-114 = test system: DMS-114
NCI-H226 = test system: NCI-H226
SNB-19 = test system: SNB-19
A498 = test system: A498
SK-OV-3 = test system: SK-OV-3
HL-60 = test system: HL-60
SK-MEL-28 = test system: SK-MEL-28
M14 = test system: M14
HOP-62 = test system: HOP-62
M19-MEL = test system: M19-MEL
XF498 = test system: XF498
SF-295 = test system: SF-295
UACC-257 = test system: UACC-257
DLD-1 = test system: DLD-1
OVCAR-4 = test system: OVCAR-4
SW-620 = test system: SW-620
KM-20L2 = test system: KM-20L2
HCT-116 = test system: HCT-116
COLO 205 = test system: COLO 205
LOX IMVI = test system: LOX IMVI
MOLT-4 = test system: MOLT-4
RXF 393 = test system: RXF 393
OVCAR-3 = test system: OVCAR-3
CAKI-1 = test system: CAKI-1
HOP-18 = test system: HOP-18
SNB-78 = test system: SNB-78
SK-MEL-5 = test system: SK-MEL-5
DMS-273 = test system: DMS-273
SR = test system: SR
UO-31 = test system: UO-31
OVCAR-8 = test system: OVCAR-8
Malme-3M = test system: Malme-3M
SF-268 = test system: SF-268
EKVX = test system: EKVX
K562 = test system: K562
NCI-H23 = test system: NCI-H23
786-0 = test system: 786-0
HCT-15 = test system: HCT-15
SK-MEL-2 = test system: SK-MEL-2
CCRF-CEM = test system: CCRF-CEM

Measured: GI50

O=S1(=O)C[C@H](O)[C@H](O)CS1
inactive: TK-10 > 100 µM | HOP-92 > 100 µM | U-251 > 100 µM | OVCAR-5 > 100 µM | HT-29 > 100 µM | SN12C > 100 µM | HCC 2998 > 100 µM | RPMI-8226 > 100 µM | NCI-H460 > 100 µM | SNB-75 > 100 µM | LXFL 529 > 100 µM | IGROV-1 > 100 µM | A549 > 100 µM | UACC-62 > 100 µM | KM12 > 100 µM | SF-539 > 100 µM | ACHN > 100 µM | NCI-H522 > 100 µM | DMS-114 > 100 µM | NCI-H226 > 100 µM | SNB-19 > 100 µM | A498 > 100 µM | SK-OV-3 > 100 µM | HL-60 > 100 µM | SK-MEL-28 > 100 µM | M14 > 100 µM | HOP-62 > 100 µM | M19-MEL > 100 µM | XF498 > 100 µM | SF-295 > 100 µM | UACC-257 > 100 µM | DLD-1 > 100 µM | OVCAR-4 > 100 µM | SW-620 > 100 µM | KM-20L2 > 100 µM | HCT-116 > 100 µM | COLO 205 > 100 µM | LOX IMVI > 100 µM | MOLT-4 > 100 µM | RXF 393 > 100 µM | OVCAR-3 > 100 µM | CAKI-1 > 100 µM | HOP-18 > 100 µM | SNB-78 > 100 µM | SK-MEL-5 > 100 µM | DMS-273 > 100 µM | SR > 100 µM | UO-31 > 100 µM | OVCAR-8 > 100 µM | Malme-3M > 100 µM | SF-268 > 100 µM | EKVX > 100 µM | K562 > 100 µM | NCI-H23 > 100 µM | 786-0 > 100 µM

O=C(CC(=O)c1ccccc1)C(=O)NC12CC3CC(CC(C3)C1)C2
> 37.8 µM: HCT-15
inactive: TK-10 > 100 µM | HOP-92 > 100 µM | U-251 > 88.9 µM | OVCAR-5 > 100 µM | HT-29 > 100 µM | SN12C > 100 µM | HCC 2998 > 100 µM | RPMI-8226 > 45.3 µM | NCI-H460 > 40.7 µM | SNB-75 > 69.7 µM | LXFL 529 > 100 µM | IGROV-1 > 100 µM | A549 > 54.1 µM | UACC-62 > 100 µM | KM12 > 100 µM | SF-539 > 100 µM | ACHN > 100 µM | NCI-H522 > 83.4 µM | DMS-114 > 42.4 µM | NCI-H226 > 100 µM | SNB-19 > 100 µM | A498 > 100 µM | SK-OV-3 > 100 µM | HL-60 > 48.5 µM | SK-MEL-28 > 100 µM | M14 > 100 µM | HOP-62 > 100 µM | M19-MEL > 100 µM | XF498 > 100 µM | SF-295 > 100 µM | UACC-257 > 100 µM | DLD-1 > 47.5 µM | OVCAR-4 > 100 µM | SW-620 > 41.6 µM | KM-20L2 > 75.7 µM | HCT-116 > 64.1 µM | COLO 205 > 45 µM | LOX IMVI > 34.6 µM | MOLT-4 > 100 µM | RXF 393 > 31.9 µM | OVCAR-3 > 100 µM | CAKI-1 > 100 µM | HOP-18 > 100 µM | SK-MEL-2 > 100 µM | SNB-78 > 100 µM | SK-MEL-5 > 100 µM | CCRF-CEM > 49.2 µM | DMS-273 > 47 µM | SR > 100 µM | UO-31 > 100 µM | OVCAR-8 > 100 µM | Malme-3M > 100 µM | SF-268 > 91.4 µM | EKVX > 100 µM | K562 > 56.9 µM | NCI-H23 > 100 µM | 786-0 > 56.2 µM

CCC(C)c1cccc(C)c1NC(=O)C(=O)Cc1nc2ccccc2s1 (centres undefined)
inactive: TK-10 > 100 µM | HOP-92 > 100 µM | U-251 > 100 µM | OVCAR-5 > 100 µM | HT-29 > 100 µM | SN12C > 100 µM | HCC 2998 > 100 µM | RPMI-8226 > 100 µM | NCI-H460 > 100 µM | SNB-75 > 100 µM | LXFL 529 > 100 µM | IGROV-1 > 100 µM | A549 > 100 µM | UACC-62 > 100 µM | KM12 > 100 µM | SF-539 > 100 µM | ACHN > 100 µM | NCI-H522 > 100 µM | DMS-114 > 100 µM | SNB-19 > 100 µM | A498 > 100 µM | SK-OV-3 > 100 µM | HL-60 > 100 µM | SK-MEL-28 > 100 µM | M14 > 100 µM | HOP-62 > 100 µM | M19-MEL > 100 µM | XF498 > 100 µM | SF-295 > 100 µM | UACC-257 > 100 µM | DLD-1 > 100 µM | OVCAR-4 > 100 µM | SW-620 > 100 µM | KM-20L2 > 100 µM | HCT-116 > 100 µM | COLO 205 > 100 µM | LOX IMVI > 100 µM | MOLT-4 > 100 µM | RXF 393 > 100 µM | OVCAR-3 > 100 µM | CAKI-1 > 100 µM | HOP-18 > 100 µM | SK-MEL-2 > 100 µM | SNB-78 > 100 µM | SK-MEL-5 > 100 µM | CCRF-CEM > 100 µM | DMS-273 > 100 µM | UO-31 > 100 µM | OVCAR-8 > 100 µM | Malme-3M > 100 µM | SF-268 > 100 µM | EKVX > 100 µM | K562 > 100 µM | NCI-H23 > 100 µM | 786-0 > 100 µM
> 100 µM: HCT-15
